Experimental findings from ChEMBL document CHEMBL5291721, “A preclinical secondary pharmacology resource illuminates target-adverse drug reaction associations of marketed drugs” (Nat Commun, 2023) are described below.

For assay [1], the target named is T1, Muscarinic acetylcholine receptor M1 (Homo sapiens, UniProt P11229).
T1 sequence (P11229 whole entry): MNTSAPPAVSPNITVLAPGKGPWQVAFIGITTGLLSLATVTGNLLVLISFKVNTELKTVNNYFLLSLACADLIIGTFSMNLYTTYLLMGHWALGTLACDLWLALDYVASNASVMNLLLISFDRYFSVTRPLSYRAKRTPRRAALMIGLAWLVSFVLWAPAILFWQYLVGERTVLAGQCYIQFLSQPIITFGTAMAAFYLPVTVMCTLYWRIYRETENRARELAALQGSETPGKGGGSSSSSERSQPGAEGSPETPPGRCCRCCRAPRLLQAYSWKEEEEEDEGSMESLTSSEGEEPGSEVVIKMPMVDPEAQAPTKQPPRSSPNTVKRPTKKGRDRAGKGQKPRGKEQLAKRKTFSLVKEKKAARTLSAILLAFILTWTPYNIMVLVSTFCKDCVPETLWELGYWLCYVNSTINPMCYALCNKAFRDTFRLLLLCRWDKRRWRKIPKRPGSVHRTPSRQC

The target in assay [2] is 5-hydroxytryptamine receptor 2A (Homo sapiens, UniProt P28223).
Assay [3] has as its target T2, Androgen receptor (Rattus norvegicus, UniProt P15207).
T2 sequence (P15207 whole entry): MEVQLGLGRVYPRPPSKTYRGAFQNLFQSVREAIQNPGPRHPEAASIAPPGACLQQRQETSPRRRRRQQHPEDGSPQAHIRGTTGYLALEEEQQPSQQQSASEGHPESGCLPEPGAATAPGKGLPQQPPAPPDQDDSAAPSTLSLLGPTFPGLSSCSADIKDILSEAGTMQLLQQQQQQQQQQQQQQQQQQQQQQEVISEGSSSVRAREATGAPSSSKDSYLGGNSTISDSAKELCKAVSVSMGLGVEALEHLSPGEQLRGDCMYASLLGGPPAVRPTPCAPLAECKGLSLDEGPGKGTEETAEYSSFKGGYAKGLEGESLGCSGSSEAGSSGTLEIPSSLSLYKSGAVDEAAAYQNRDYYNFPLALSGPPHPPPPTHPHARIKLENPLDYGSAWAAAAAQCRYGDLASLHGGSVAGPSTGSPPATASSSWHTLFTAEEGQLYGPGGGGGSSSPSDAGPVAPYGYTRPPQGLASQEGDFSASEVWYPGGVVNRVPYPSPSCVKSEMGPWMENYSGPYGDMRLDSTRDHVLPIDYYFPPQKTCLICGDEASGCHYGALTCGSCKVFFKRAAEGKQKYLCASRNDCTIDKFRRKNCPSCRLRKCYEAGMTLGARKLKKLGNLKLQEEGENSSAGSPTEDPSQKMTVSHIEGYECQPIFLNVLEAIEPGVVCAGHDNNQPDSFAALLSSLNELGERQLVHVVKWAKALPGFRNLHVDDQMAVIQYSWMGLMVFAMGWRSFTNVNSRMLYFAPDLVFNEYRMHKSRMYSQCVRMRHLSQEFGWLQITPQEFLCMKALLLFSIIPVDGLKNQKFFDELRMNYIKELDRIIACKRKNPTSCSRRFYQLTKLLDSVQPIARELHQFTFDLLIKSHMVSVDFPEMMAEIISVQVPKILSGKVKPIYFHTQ

For the next assay, the target named is T3, Progesterone receptor (Homo sapiens, UniProt P06401).
T3 sequence (P06401 whole entry): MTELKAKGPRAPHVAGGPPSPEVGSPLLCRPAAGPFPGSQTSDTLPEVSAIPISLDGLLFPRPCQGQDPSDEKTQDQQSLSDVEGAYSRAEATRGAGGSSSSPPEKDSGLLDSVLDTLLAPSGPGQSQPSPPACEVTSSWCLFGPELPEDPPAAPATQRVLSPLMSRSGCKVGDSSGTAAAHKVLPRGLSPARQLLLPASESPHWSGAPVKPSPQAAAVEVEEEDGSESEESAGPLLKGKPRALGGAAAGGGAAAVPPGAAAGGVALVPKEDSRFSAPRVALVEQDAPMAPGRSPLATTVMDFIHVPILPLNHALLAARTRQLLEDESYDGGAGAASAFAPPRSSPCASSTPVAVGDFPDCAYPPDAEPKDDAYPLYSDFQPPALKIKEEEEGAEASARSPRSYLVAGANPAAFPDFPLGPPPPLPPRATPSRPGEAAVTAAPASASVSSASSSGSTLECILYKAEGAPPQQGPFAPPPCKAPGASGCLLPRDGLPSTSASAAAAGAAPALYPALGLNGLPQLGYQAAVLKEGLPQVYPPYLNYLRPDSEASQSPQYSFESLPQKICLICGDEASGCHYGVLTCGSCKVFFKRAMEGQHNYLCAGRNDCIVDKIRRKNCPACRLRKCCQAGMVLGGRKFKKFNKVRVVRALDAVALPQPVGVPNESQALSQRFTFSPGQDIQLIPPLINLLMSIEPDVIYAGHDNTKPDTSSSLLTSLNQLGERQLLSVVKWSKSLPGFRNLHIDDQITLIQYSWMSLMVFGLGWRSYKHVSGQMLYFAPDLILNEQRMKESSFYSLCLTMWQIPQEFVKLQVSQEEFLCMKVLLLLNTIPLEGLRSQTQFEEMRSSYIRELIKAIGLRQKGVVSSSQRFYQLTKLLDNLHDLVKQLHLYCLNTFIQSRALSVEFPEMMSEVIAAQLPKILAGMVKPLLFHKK

A further assay concerns the target Estrogen receptor beta (Homo sapiens, UniProt Q92731).
In assay [4] the target is Gamma-aminobutyric acid type B receptor subunit 1 (Homo sapiens, UniProt Q9UBS5).
A further assay concerns the target D(1B) dopamine receptor (Homo sapiens, UniProt P21918).
For assay [5], the target named is T2, Androgen receptor. In kind it is functional.
Assay [6] deals with T2, Androgen receptor. In kind it is functional. This is another data set of the same source.
Assay [7] concerns the target T4, Gamma-aminobutyric acid receptor subunit alpha-1/alpha-2/beta-2/gamma-2 (Homo sapiens, UniProt P14867+P18507+P47869+P47870). In kind it is functional, cell-based.
The target of assay [8] is T4, Gamma-aminobutyric acid receptor subunit alpha-1/alpha-2/beta-2/gamma-2. The class given is functional, cell-based. This is another data set of the same source.
Further: assay procedure not described here.

Chain of Estrogen receptor beta (Q92731 whole entry): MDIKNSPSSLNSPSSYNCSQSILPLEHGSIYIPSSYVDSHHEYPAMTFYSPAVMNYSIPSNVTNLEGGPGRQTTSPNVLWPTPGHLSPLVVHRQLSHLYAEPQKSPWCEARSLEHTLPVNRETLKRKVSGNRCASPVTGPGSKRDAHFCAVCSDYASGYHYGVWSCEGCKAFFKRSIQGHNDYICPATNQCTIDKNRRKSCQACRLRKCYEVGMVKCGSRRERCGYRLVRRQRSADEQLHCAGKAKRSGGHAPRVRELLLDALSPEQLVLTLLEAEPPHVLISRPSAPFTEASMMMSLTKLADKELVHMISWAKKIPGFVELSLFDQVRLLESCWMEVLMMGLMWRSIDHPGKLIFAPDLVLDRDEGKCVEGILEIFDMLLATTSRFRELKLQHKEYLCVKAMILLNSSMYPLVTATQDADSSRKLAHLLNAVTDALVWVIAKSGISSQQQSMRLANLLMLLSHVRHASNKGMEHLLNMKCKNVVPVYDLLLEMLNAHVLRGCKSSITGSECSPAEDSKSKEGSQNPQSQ
Chain of 5-hydroxytryptamine receptor 2A (P28223 whole entry): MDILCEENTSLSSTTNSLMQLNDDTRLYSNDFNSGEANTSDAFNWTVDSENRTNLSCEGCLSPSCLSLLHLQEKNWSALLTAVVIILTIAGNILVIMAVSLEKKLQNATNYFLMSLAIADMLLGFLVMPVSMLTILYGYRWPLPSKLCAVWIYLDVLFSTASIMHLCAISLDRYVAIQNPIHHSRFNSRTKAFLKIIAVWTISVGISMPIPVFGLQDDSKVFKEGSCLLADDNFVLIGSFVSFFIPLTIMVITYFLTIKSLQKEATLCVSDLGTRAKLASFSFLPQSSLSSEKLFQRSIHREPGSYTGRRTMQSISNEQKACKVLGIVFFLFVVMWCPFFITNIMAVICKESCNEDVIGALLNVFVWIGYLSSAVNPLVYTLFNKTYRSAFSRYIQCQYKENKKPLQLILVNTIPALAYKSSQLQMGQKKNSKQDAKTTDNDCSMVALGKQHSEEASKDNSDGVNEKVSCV
T4 sequence (P14867 whole entry): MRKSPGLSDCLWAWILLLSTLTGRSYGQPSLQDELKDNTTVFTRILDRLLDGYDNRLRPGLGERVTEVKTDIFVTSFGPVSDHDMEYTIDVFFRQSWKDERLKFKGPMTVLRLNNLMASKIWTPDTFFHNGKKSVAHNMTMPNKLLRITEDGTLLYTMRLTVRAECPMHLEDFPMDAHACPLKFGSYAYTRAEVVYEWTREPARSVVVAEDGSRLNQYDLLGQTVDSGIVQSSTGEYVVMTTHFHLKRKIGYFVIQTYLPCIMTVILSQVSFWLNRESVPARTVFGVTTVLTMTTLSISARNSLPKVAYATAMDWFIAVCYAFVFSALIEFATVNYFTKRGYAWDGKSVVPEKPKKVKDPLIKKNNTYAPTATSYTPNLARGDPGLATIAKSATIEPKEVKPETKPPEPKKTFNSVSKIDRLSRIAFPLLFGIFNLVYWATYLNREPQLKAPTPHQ
T4 sequence (P47870 whole entry): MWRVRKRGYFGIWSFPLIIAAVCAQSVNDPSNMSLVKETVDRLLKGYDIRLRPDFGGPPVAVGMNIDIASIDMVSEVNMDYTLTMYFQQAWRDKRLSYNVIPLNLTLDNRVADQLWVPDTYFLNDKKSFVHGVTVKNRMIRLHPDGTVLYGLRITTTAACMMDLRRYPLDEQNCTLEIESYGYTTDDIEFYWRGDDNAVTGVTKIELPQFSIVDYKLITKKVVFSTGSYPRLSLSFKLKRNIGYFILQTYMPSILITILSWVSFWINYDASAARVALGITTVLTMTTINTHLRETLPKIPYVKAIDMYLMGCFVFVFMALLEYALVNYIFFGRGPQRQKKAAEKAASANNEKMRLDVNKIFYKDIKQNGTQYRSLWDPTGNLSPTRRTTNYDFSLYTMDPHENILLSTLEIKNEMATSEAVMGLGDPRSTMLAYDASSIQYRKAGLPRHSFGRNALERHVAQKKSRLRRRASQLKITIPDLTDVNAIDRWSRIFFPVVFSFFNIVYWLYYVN
T4 sequence (P18507 whole entry): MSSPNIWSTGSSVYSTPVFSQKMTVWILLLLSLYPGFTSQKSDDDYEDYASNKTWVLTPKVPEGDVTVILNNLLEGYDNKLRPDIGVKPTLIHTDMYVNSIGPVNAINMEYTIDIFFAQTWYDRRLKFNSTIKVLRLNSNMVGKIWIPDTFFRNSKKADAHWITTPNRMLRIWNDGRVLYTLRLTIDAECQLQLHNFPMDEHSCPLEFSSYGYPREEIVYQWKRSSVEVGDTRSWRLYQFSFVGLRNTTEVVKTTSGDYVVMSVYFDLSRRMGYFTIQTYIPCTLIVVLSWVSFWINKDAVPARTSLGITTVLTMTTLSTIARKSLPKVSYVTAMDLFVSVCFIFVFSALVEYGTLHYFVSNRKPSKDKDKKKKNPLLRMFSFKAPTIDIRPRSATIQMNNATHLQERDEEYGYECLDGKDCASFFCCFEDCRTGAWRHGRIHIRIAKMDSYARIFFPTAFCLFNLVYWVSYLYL
T4 sequence (P47869 whole entry): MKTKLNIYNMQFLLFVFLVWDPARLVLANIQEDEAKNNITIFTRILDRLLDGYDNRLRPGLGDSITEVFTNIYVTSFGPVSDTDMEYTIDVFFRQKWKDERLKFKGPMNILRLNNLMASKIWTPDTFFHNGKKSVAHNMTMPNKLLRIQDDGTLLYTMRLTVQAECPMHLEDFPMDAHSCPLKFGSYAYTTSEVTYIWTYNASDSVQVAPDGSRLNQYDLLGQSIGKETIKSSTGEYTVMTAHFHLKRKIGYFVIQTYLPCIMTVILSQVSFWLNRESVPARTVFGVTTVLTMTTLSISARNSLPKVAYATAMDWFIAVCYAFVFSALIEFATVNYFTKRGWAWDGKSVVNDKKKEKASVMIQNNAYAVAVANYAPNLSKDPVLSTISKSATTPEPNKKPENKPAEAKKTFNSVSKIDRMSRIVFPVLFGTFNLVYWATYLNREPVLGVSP
Chain of D(1B) dopamine receptor (P21918 whole entry): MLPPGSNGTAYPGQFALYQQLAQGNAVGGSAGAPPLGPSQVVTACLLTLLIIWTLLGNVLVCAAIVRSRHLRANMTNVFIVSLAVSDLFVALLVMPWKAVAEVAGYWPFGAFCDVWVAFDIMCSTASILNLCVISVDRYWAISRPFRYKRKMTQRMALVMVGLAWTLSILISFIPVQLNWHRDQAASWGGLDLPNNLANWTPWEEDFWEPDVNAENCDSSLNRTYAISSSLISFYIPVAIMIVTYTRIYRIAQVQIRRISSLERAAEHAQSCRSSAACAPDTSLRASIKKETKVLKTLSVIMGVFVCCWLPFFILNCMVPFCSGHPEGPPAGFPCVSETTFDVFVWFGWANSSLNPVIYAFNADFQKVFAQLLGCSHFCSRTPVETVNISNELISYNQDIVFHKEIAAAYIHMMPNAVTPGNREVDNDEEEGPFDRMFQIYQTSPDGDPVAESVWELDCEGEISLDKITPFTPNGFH
Chain of Gamma-aminobutyric acid type B receptor subunit 1 (Q9UBS5 whole entry): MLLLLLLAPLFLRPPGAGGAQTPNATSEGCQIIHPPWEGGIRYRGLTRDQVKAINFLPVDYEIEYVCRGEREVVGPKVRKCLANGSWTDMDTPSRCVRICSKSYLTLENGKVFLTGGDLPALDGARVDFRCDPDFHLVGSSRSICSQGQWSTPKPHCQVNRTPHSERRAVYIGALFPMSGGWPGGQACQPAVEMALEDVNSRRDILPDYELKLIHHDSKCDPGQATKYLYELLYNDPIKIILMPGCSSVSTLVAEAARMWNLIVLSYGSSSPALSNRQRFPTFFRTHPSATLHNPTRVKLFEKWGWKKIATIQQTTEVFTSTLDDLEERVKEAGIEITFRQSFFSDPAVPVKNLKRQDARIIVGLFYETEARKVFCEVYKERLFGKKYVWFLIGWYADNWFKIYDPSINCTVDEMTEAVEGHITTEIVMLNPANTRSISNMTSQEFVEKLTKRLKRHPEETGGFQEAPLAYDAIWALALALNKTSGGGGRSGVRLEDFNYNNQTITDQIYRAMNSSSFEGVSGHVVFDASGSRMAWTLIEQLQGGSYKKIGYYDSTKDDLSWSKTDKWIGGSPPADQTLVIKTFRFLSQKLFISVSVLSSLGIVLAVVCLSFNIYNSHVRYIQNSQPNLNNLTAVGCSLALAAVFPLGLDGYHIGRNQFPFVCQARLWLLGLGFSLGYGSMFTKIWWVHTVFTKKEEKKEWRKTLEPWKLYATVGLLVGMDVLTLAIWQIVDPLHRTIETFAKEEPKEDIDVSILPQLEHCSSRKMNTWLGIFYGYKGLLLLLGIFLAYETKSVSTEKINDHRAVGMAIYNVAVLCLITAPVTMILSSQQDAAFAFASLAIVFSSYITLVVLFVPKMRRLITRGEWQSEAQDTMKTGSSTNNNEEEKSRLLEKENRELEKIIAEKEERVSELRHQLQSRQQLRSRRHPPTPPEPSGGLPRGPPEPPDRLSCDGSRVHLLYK

Regarding `CCCCCCCC(=O)N[C@H](CN1CCCC1)[C@H](O)c1ccc2c(c1)OCCO2`, in [1], the AC50 (commonly the concentration at which the activity in the assay is half-maximal) was more than 30 µM.
As for `C[C@]1(COc2ccc(N3CCC(Oc4ccc(OC(F)(F)F)cc4)CC3)cc2)Cn2cc([N+](=O)[O-])nc2O1`, the AC50 in assay [2] was more than 10 µM; at Androgen receptor [3] it was more than 30 µM; on Progesterone receptor, more than 30 µM; on Estrogen receptor beta it was more than 30 µM.
In the case of `C[C@]12CC[C@H](O)CC1=CC[C@@H]1[C@@H]2CC[C@]2(C)C(c3cccnc3)=CC[C@@H]12` [ABIRATERONE], the AC50 in assay [2] was more than 10 µM; on Androgen receptor [3] it was more than 30 µM; at Progesterone receptor, more than 30 µM.
Take `CC(=O)OCC[N+](C)(C)C` [ACETYLCHOLINE]: the AC50 in [2] was more than 10 µM; on Progesterone receptor, more than 30 µM; at Estrogen receptor beta, more than 30 µM.
Regarding `O=C(Nc1nc(-c2cc(Cl)cs2)c(N2CCN(C3CCCCC3)CC2)s1)c1cnc(N2CCC(C(=O)O)CC2)c(Cl)c1` [AVATROMBOPAG], the AC50 in assay [4] is more than 10 µM; in assay [2], more than 10 µM; in assay [1], more than 30 µM; on D(1B) dopamine receptor, more than 10 µM.
Turning to `CN(C)C(=O)Oc1cc(OC(=O)N(C)C)cc(C(O)CNC(C)(C)C)c1` (stereo not given) [BAMBUTEROL], the half-maximal activity concentration (AC50) at Androgen receptor [5] and on Androgen receptor [6] was more than 30 µM in each case.
Compound `C[C@H]1C[C@H]2[C@@H]3CCC4=CC(=O)C=C[C@]4(C)[C@@]3(Cl)[C@@H](O)C[C@]2(C)[C@@]1(O)C(=O)CO` [BECLOMETHASONE] gave an AC50 on Progesterone receptor of more than 30 µM.
For `CO[C@@]1(NC(=O)CSCC#N)C(=O)N2C(C(=O)O)=C(CSc3nnnn3C)CS[C@@H]21` [CEFMETAZOLE], in [7], the AC50 is more than 30 µM.
Take `CO/N=C(\C(=O)N[C@@H]1C(=O)N2C(C(=O)[O-])=C(C[n+]3cccc4c3CCC4)CS[C@H]12)c1csc(N)n1` [CEFPIROME]: the AC50 in assay [7] and in assay [8] was more than 30 µM in each case.
`Oc1c(I)cc(Cl)c2cccnc12` [CLIOQUINOL]: the AC50 in assay [7], in assay [8] and in assay [1] was more than 30 µM throughout.
`COc1ccc2c(c1)[C@]13CCCC[C@@H]1[C@H](C2)N(C)CC3` [DEXTROMETHORPHAN]: the AC50 on Progesterone receptor and at Estrogen receptor beta was more than 30 µM throughout.
As for `O=c1oc2ccccc2c(O)c1Cc1c(O)c2ccccc2oc1=O` [DICUMAROL], at Androgen receptor [3], the AC50 was more than 10 µM.
As to `CCn1cc(C(=O)O)c(=O)c2cc(F)c(N3CCNCC3)nc21` [ENOXACIN], the AC50 was more than 10 µM in assay [4], more than 30 µM at Progesterone receptor, more than 10 µM on D(1B) dopamine receptor and more than 30 µM at Estrogen receptor beta.
Regarding `O=C(O)CSCC(=O)NC1CCSC1=O` (stereo not given) [ERDOSTEINE], the AC50 on Androgen receptor [5] and at Androgen receptor [6] was more than 30 µM in each case.
Consider `CCC(=O)O[C@@H]1CC(=O)O[C@H](C)C/C=C/C=C/[C@H](OC(C)=O)[C@H](C)C[C@H](CC=O)[C@H](O[C@@H]2O[C@H](C)[C@@H](O[C@H]3C[C@@](C)(OC(C)=O)[C@@H](OC(=O)CC)[C@H](C)O3)[C@H](N(C)C)[C@H]2O)[C@H]1OC` [MIOCAMYCIN], for which the AC50 in [1] is more than 30 µM.
In the case of `N=C(N)c1ccc2cc(OC(=O)c3ccc(N=C(N)N)cc3)ccc2c1` [NAFAMOSTAT], the activity on Androgen receptor [5] was half-maximal at 12 µM (AC50).
In [1], `C1CNCCN1` [PIPERAZINE] gave an AC50 of more than 30 µM.
Turning to `COCCCOc1ccnc(C[S+]([O-])c2nc3ccccc3[nH]2)c1C` (stereo not given) [RABEPRAZOLE], the AC50 on Progesterone receptor and on Estrogen receptor beta was more than 30 µM in each case.
For `CC(C)=CCOc1ccc(/C=C/C(=O)c2ccc(OCC=C(C)C)cc2OCC(=O)O)cc1` [SOFALCONE], the AC50 at Androgen receptor [5] was more than 30 µM; at Androgen receptor [6], 6.1 µM.
Take `O=C(CCCN1CCC2(CC1)C(=O)NCN2c1ccccc1)c1ccc(F)cc1` [SPIPERONE]: the AC50 in assay [7] and in assay [8] was more than 30 µM in each case.
`CN(C)c1cc(NC(=O)CNC(C)(C)C)c(O)c2c1C[C@H]1C[C@H]3[C@H](N(C)C)C(O)=C(C(N)=O)C(=O)[C@@]3(O)C(O)=C1C2=O` [TIGECYCLINE]: the half-maximal activity concentration (AC50) at Androgen receptor [3] was more than 30 µM.
On to `OCCN1CCN(CC/C=C2/c3ccccc3Sc3ccc(Cl)cc32)CC1` [ZUCLOPENTHIXOL], for which the figures for the AC50 (in [2]; on Androgen receptor [3]) were 0.0046 µM and more than 10 µM, respectively.
